In patent US9637472B2, “Substituted 6,5-fused bicyclic heteroaryl compounds” (Epizyme, Inc., priority 2011, dated 2017):

Biological target: EZH2 (Homo sapiens (Human), UniProt Q15910)
Experiment: PRC2 enzyme assay on peptide substrates
Format: biochemical
Details: not given

Chain of EZH2 (Q15910 other isoform, or with tags, fused parts or gaps): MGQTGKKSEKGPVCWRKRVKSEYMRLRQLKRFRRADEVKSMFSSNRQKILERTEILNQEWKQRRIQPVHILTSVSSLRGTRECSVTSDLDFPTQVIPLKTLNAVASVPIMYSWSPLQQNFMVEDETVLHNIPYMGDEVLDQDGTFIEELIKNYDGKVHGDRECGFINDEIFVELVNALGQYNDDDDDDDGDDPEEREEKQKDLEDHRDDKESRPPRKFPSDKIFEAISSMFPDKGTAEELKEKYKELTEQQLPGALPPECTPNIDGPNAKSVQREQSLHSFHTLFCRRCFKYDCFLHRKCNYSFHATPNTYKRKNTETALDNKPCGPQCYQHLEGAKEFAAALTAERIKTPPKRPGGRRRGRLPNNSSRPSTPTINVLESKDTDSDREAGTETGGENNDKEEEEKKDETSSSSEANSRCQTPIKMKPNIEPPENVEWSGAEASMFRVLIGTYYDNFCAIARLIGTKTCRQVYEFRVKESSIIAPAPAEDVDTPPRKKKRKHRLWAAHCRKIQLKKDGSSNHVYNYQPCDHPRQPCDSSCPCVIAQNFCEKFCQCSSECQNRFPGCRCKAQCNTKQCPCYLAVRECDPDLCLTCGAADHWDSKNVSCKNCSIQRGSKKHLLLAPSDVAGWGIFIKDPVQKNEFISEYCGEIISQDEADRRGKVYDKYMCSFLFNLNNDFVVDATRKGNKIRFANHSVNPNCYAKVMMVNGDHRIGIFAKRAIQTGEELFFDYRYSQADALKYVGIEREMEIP
Chain of EZH2 (O75530 whole entry partner): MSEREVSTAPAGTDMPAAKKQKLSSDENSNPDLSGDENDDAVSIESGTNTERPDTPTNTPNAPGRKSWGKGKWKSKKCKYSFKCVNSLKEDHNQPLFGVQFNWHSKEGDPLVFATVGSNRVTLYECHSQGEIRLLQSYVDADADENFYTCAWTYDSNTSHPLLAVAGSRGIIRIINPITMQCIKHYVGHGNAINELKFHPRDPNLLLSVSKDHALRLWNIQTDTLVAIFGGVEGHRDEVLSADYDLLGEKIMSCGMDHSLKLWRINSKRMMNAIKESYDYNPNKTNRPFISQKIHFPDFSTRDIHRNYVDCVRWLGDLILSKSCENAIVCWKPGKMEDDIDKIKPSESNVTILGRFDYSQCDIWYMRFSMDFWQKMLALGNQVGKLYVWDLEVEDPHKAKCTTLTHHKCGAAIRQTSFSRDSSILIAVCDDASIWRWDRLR
Chain of EZH2 (Q15022 whole entry partner): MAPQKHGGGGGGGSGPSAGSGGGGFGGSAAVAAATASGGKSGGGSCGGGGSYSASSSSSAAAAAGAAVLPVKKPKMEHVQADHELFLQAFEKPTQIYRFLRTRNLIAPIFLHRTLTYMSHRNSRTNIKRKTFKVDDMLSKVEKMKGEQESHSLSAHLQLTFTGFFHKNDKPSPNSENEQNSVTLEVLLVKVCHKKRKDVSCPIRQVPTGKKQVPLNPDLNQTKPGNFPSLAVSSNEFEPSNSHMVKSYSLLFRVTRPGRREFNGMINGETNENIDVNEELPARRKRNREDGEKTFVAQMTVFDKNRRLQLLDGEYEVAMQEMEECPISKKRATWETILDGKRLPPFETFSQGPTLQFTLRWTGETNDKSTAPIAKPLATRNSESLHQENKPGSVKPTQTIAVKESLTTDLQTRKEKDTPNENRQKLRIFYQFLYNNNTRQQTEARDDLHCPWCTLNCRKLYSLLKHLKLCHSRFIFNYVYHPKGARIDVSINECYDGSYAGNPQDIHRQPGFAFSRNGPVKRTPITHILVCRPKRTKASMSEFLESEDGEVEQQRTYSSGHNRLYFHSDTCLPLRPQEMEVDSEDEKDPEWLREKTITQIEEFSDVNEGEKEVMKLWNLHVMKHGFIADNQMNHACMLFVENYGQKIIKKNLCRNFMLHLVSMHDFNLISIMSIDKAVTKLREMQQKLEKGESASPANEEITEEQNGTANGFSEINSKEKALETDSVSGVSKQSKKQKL
Chain of EZH2 (Q09028 whole entry partner): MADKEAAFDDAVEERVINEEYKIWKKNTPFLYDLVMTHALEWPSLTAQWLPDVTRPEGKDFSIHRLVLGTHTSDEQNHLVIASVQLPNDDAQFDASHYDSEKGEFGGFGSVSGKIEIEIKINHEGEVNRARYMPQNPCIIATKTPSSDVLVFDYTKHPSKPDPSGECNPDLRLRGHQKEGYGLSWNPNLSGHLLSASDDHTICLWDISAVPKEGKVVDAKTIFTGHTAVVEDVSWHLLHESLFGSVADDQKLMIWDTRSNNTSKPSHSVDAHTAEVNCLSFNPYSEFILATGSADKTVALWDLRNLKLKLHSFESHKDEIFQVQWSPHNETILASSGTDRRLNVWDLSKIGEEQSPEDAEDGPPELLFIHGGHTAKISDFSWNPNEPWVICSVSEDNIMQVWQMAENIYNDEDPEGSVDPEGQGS

Row | SMILES | IC50 [µM]
1 | Cc1cc(C)c(CNC(=O)c2cc(C3=CCN(C)CC3)nc3c2cnn3C(C)C)c(=O)[nH]1 [Compound B-75] | 0.3 to 1

Same assay, conditions: PRC2 enzyme assays on peptide substrates; 4 nM enzyme, 30 min preincubation at 25° C.; read-out: EZH2 IC50

Row | SMILES | IC50 [µM]
2 | Cc1cc(C)c(CNC(=O)c2cc(C3=CC(C)(C)NC(C)(C)C3)nc3c2cnn3C(C)C)c(=O)[nH]1 [Compound B-36] | 0.3 to 1
3 | Cc1cc(C)c(CNC(=O)c2cc(C3=CCN(C4CCNCC4)CC3)nc3c2cnn3C(C)C)c(=O)[nH]1 [Compound B-38] | 0.3 to 1
4 | CNCC(=O)N1CC=C(c2cc(C(=O)NCc3c(C)cc(C)[nH]c3=O)c3cnn(C(C)C)c3n2)CC1 [Compound B-39] | 0.3 to 1
5 | Cc1cc(C)c(CNC(=O)c2cc(C3=CCN(C4CCN(S(C)(=O)=O)CC4)CC3)nc3c2cnn3C(C)C)c(=O)[nH]1 [Compound B-40] | 0.3 to 1
6 | Cc1cc(C)c(CNC(=O)c2cc(N3CCC(N4CCNCC4)CC3)nc3c2cnn3C(C)C)c(=O)[nH]1 [Compound B-44] | 0.3 to 1
7 | Cc1cc(C)c(CNC(=O)c2cc(C3=CCN(C(=O)[C@H](C)N)CC3)nc3c2cnn3C(C)C)c(=O)[nH]1 [Compound B-46] | 0.3 to 1
8 | Cc1cc(C)c(CNC(=O)c2cc(C3CC(C)(C)NC(C)(C)C3)nc3c2cnn3C2COC2)c(=O)[nH]1 [Compound B-47] | 0.3 to 1
9 | Cc1cc(C)c(CNC(=O)c2cc(N3CCC(C4CCNCC4)CC3)nc3c2cnn3C(C)C)c(=O)[nH]1 [Compound B-48] | 0.3 to 1
10 | Cc1cc(C)c(CNC(=O)c2cc(C3=CCN(C(=O)CCN)CC3)nc3c2cnn3C(C)C)c(=O)[nH]1 [Compound B-49] | 0.3 to 1
11 | Cc1cc(C)c(CNC(=O)c2cc(C3=CCN(C(=O)CN(C)C)CC3)nc3c2cnn3C(C)C)c(=O)[nH]1 [Compound B-53] | 0.3 to 1
12 | Cc1cc(C)c(CNC(=O)c2cc(C3CCN(C4CCN(CCS(C)(=O)=O)CC4)CC3)nc3c2cnn3C(C)C)c(=O)[nH]1 [Compound B-55] | 0.3 to 1
13 | Cc1cc(C)c(CNC(=O)c2cc(C3CCN(C(=O)CN(C)C)CC3)nc3c2cnn3C(C)C)c(=O)[nH]1 [Compound B-57] | 0.3 to 1
14 | Cc1cc(C)c(CNC(=O)c2cc(C3=CCNCC3)nc3c2cnn3C(C)C)c(=O)[nH]1 [Compound B-60] | 0.3 to 1
15 | Cc1cc(C)c(CNC(=O)c2cc(C3CCN(C(=O)CCN)CC3)nc3c2cnn3C(C)C)c(=O)[nH]1 [Compound B-62] | 0.3 to 1
16 | Cc1cc(C)c(CNC(=O)c2cc(C3=CCN(C(=O)CN)CC3)nc3c2cnn3C(C)C)c(=O)[nH]1 [Compound B-63] | 0.3 to 1
17 | CC(=O)N1CC=C(c2cc(C(=O)NCc3c(C)cc(C)[nH]c3=O)c3cnn(C(C)C)c3n2)CC1 [Compound B-64] | 0.3 to 1
18 | Cc1cc(C)c(CNC(=O)c2cc(C3=CCN(C(=O)[C@@H](N)CO)CC3)nc3c2cnn3C(C)C)c(=O)[nH]1 [Compound B-66] | 0.3 to 1
19 | Cc1cc(C)c(CNC(=O)c2cc(C3=CCN(C(=O)C(O)CN)CC3)nc3c2cnn3C(C)C)c(=O)[nH]1 (stereo not drawn) [Compound B-70] | 0.3 to 1
20 | Cc1cc(C)c(CNC(=O)c2cc(C3CCN(CCC(F)(F)F)CC3)nc3c2cnn3C(C)C)c(=O)[nH]1 [Compound B-71] | 0.3 to 1
21 | Cc1cc(C)c(CNC(=O)c2cc(C3CCN(C)CC3)nc3c2cnn3C(C)C)c(=O)[nH]1 [Compound B-73] | 0.3 to 1
22 | CNCC(=O)N1CCC(c2cc(C(=O)NCc3c(C)cc(C)[nH]c3=O)c3cnn(C(C)C)c3n2)CC1 [Compound B-76] | 0.3 to 1
23 | Cc1cc(C)c(CNC(=O)c2cc(C3CCN(C(=O)C4CNC4)CC3)nc3c2cnn3C(C)C)c(=O)[nH]1 [Compound B-77] | 0.3 to 1
24 | CC(=O)N1CCC(c2cc(C(=O)NCc3c(C)cc(C)[nH]c3=O)c3cnn(C(C)C)c3n2)CC1 [Compound B-78] | 0.3 to 1

Row | SMILES | IC50 [µM]
25 | Cc1cc(C)c(CNC(=O)c2cc(C3CCN(C(=O)CN)CC3)nc3c2cnn3C(C)C)c(=O)[nH]1 [Compound B-79] | 0.3 to 1
26 | Cc1cc(C)c(CNC(=O)c2cc(C3=CCOCC3)nc3c2cnn3C(C)C)c(=O)[nH]1 [Compound B-80] | 0.3 to 1
27 | Cc1cc(C)c(CNC(=O)c2cc(C3=CCCCC3)nc3c2cnn3C(C)C)c(=O)[nH]1 [Compound B-81] | 0.3 to 1
28 | Cc1cc(C)c(CNC(=O)c2cc(C3=CCN(C(=O)CO)CC3)nc3c2cnn3C(C)C)c(=O)[nH]1 [Compound B-82] | 0.3 to 1
29 | Cc1cc(C)c(CNC(=O)c2cc(C3CCN(CCS(C)(=O)=O)CC3)nc3c2cnn3C(C)C)c(=O)[nH]1 [Compound B-83] | 0.3 to 1
30 | Cc1cc(C)c(CNC(=O)c2cc(C3=CCN(CCC(F)(F)F)CC3)nc3c2cnn3C(C)C)c(=O)[nH]1 [Compound B-84] | 0.3 to 1
31 | Cc1cc(C)c(CNC(=O)c2cc(C3CCN(C(=O)CO)CC3)nc3c2cnn3C(C)C)c(=O)[nH]1 [Compound B-85] | 0.3 to 1
32 | Cc1cc(C)c(CNC(=O)c2cc(N3CCC(N(C)C)CC3)nc3c2cnn3C(C)C)c(=O)[nH]1 [Compound B-86] | 1 to 3
33 | Cc1cc(C)c(CNC(=O)c2cc(N3CCC(N4CCOCC4)CC3)nc3c2cnn3C(C)C)c(=O)[nH]1 [Compound B-87] | 1 to 3
34 | Cc1cc(C)c(CNC(=O)c2cc(Br)nc3c2cnn3C(C)C)c(=O)[nH]1 [Compound B-88] | 1 to 3
35 | Cc1cc(C)c(CNC(=O)c2cc(C3=CCN(CCS(C)(=O)=O)CC3)nc3c2cnn3C(C)C)c(=O)[nH]1 [Compound B-89] | 1 to 3
36 | Cc1cc(C)c(CNC(=O)c2cc(N(C)CCCN(C)C)nc3c2cnn3C(C)C)c(=O)[nH]1 [Compound B-91] | 1 to 3
37 | Cc1cc(C)c(CNC(=O)c2cc(N3CCNCC3)nc3c2cnn3C(C)C)c(=O)[nH]1 [Compound B-92] | 1 to 3
38 | C=C(C)c1cc(C(=O)NCc2c(C)cc(C)[nH]c2=O)c2cnn(C(C)C)c2n1 [Compound B-93] | 1 to 3
39 | Cc1cc(C)c(CNC(=O)c2cc(N3CCC(C4CCN(C)CC4)CC3)nc3c2cnn3C(C)C)c(=O)[nH]1 [Compound B-94] | 1 to 3
40 | Cc1cc(C)c(CNC(=O)c2cc(N3CCC(=O)CC3)nc3c2cnn3C(C)C)c(=O)[nH]1 [Compound B-95] | 1 to 3
41 | Cc1cc(C)c(CNC(=O)c2cc(C3CCN(C(=O)C(O)CN)CC3)nc3c2cnn3C(C)C)c(=O)[nH]1 (stereo not drawn) [Compound B-96] | 1 to 3
42 | C=Cc1cc(C(=O)NCc2c(C)cc(C)[nH]c2=O)c2cnn(C(C)C)c2n1 [Compound B-97] | 1 to 3
43 | Cc1cc(C)c(CNC(=O)c2cc(N3CCOCC3)nc3c2cnn3C(C)C)c(=O)[nH]1 [Compound B-98] | 1 to 3
44 | Cc1cc(C)c(CNC(=O)c2cc(C3=CCN(S(C)(=O)=O)CC3)nc3c2cnn3C(C)C)c(=O)[nH]1 [Compound B-99] | 1 to 3
45 | Cc1cc(C)c(CNC(=O)c2cc(C3CCN(C(=O)[C@@H](N)CO)CC3)nc3c2cnn3C(C)C)c(=O)[nH]1 [Compound B-100] | 1 to 3
46 | Cc1cc(C)c(CNC(=O)c2cc(N3CCC(N4CCN(S(C)(=O)=O)CC4)CC3)nc3c2cnn3C(C)C)c(=O)[nH]1 [Compound B-101] | 1 to 3
47 | Cc1cc(C)c(CNC(=O)c2cc(N3CCC(N4CCN(CCS(C)(=O)=O)CC4)CC3)nc3c2cnn3C(C)C)c(=O)[nH]1 [Compound B-102] | 1 to 3

Row | SMILES | IC50 [µM]
48 | Cc1cc(C)c(CNC(=O)c2cc(C3=CC(C)(C)NC(C)(C)C3)nc3c2cnn3C2C=CCCC2)c(=O)[nH]1 (stereo not drawn) [Compound B-103] | 1 to 3
49 | Cc1cc(C)c(CNC(=O)c2cc(OC(C)C)nc3c2cnn3C(C)C)c(=O)[nH]1 [Compound B-104] | 1 to 3
50 | Cc1cc(C)c(CNC(=O)c2cc(C3CCN(C(=O)[C@H](C)N)CC3)nc3c2cnn3C(C)C)c(=O)[nH]1 [Compound B-105] | 1 to 3
51 | Cc1cc(C)c(CNC(=O)c2cc(N3CCC(N4CCN(C)CC4)CC3)nc3c2cnn3C(C)C)c(=O)[nH]1 [Compound B-106] | 1 to 3
52 | Cc1cc(C)c(CNC(=O)c2cc(C3=CC(C)(C)NC(C)(C)C3)nc3c2cnn3C2CCNCC2)c(=O)[nH]1 [Compound B-107] | 1 to 3
53 | Cc1cc(C)c(CNC(=O)c2cc(N3CCC(N4CCN(C(=O)OC(C)(C)C)CC4)CC3)nc3c2cnn3C(C)C)c(=O)[nH]1 [Compound B-108] | 1 to 3
54 | Cc1cc(C)c(CNC(=O)c2cc(N3CCC(N)CC3)nc3c2cnn3C(C)C)c(=O)[nH]1 [Compound B-110] | 1 to 3
55 | CCOc1cc(C(=O)NCc2c(C)cc(C)[nH]c2=O)c2cnn(C(C)C)c2n1 [Compound B-112] | 1 to 3
56 | Cc1cc(C)c(CNC(=O)c2cc(CO)nc3c2cnn3C(C)C)c(=O)[nH]1 [Compound B-113] | 1 to 3
57 | Cc1cc(C)c(CNC(=O)c2cc(NCCS(C)(=O)=O)nc3c2cnn3C(C)C)c(=O)[nH]1 [Compound B-114] | 1 to 3
58 | Cc1cc(C)c(CNC(=O)c2cc(N3CCCCC3)nc3c2cnn3C(C)C)c(=O)[nH]1 [Compound B-115] | 1 to 3
59 | Cc1cc(C)c(CNC(=O)c2cc(C3=CC(C)(C)NC(C)(C)C3)nc3c2cnn3C2CCN(C)CC2)c(=O)[nH]1 [Compound B-116] | 1 to 3
60 | CCc1cc(C(=O)NCc2c(C)cc(C)[nH]c2=O)c2cnn(C(C)C)c2n1 [Compound B-117] | 1 to 3
61 | COc1cc(C(=O)NCc2c(C)cc(C)[nH]c2=O)c2cnn(C(C)C)c2n1 [Compound B-118] | 1 to 3
62 | Cc1cc(C)c(CNC(=O)c2cc(N3CCC(O)C3)nc3c2cnn3C(C)C)c(=O)[nH]1 (stereo not drawn) [Compound B-119] | 1 to 3
63 | C=C(Cn1ncc2c(C(=O)NCc3c(C)cc(C)[nH]c3=O)cc(C3=CC(C)(C)NC(C)(C)C3)nc21)C(=O)OC [Compound B-120] | 1 to 3
64 | CC(=O)Nc1cc(C(=O)NCc2c(C)cc(C)[nH]c2=O)c2cnn(C(C)C)c2n1 [Compound B-121] | 1 to 3
65 | CCc1c(C)[nH]c(=O)c(CNC(=O)c2cc(C3=CC(C)(C)NC(C)(C)C3)nc3c2cnn3C(C)C)c1C [Compound B-122] | 3 to 10
66 | Cc1cc(C)c(CNC(=O)c2cc(N3CCCC3)nc3c2cnn3C(C)C)c(=O)[nH]1 [Compound B-123] | 3 to 10
67 | COC(=O)/C=C/Cn1ncc2c(C(=O)NCc3c(C)cc(C)[nH]c3=O)cc(C3=CC(C)(C)NC(C)(C)C3)nc21 [Compound B-124] | 3 to 10
68 | Cc1cc(C)c(CNC(=O)c2cc(N)nc3c2cnn3C(C)C)c(=O)[nH]1 [Compound B-125] | 3 to 10
69 | Cc1cc(C)c(CNC(=O)c2cc(C(O)CO)nc3c2cnn3C(C)C)c(=O)[nH]1 (stereo not drawn) [Compound B-126] | 3 to 10
